According to ChEMBL document CHEMBL1131671, “6-(1-Hydroxyalkyl)penam sulfone derivatives as inhibitors of class A and class C beta-lactamases I” (Bioorg Med Chem Lett, 1999):
Converted amounts (≈) assume the structure as drawn.

molecular target: Beta-lactamase (Escherichia coli K-12, UniProt P00811); test: Inhibitory activity against AmpC (class C) beta-lactamase
Sequence (P00811 whole entry): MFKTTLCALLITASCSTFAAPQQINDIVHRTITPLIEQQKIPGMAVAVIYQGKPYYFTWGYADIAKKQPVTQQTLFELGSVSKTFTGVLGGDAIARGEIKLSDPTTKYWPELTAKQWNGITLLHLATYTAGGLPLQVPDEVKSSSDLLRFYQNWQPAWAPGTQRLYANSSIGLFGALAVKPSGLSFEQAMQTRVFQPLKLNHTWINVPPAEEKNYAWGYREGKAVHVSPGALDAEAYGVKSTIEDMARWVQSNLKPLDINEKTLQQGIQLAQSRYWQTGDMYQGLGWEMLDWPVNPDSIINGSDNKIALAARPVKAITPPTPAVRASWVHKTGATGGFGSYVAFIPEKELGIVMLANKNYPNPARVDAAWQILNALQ

Compound | IC50 [µM]
C[C@@H](O)[C@H]1C(=O)N2C(C(=O)O)=C(S[C@@H]3CCO[C@@H]3CN)[C@H](C)[C@H]12 | 0.18
C[C@H](O)[C@@H]1C(=O)N2[C@@H](C(=O)O)C(C)(C)S(=O)(=O)[C@H]12 | 0.12
CC1(C)S[C@@H]2[C@@H](CO)C(=O)N2[C@H]1C(=O)O | 220
C[C@H](O)[C@H]1C(=O)N2[C@@H](C(=O)O)C(C)(C)S(=O)(=O)[C@H]12 | 1.6
C[C@@H](O)[C@H]1C(=O)N2[C@@H](C(=O)O)C(C)(C)S(=O)(=O)[C@H]12 | 10.2
CC1(C)[C@H](C(=O)O)N2C(=O)[C@H](CO)[C@H]2S1(=O)=O | 5.8
CC1(C)S[C@@H]2[C@H](CO)C(=O)N2[C@H]1C(=O)O | 65.9
CC(C)[C@H](NC[C@H]1OCC[C@H]1SC1=C(C(=O)O)N2C(=O)[C@H]([C@@H](C)O)C2[C@H]1C)C(=O)O (stereo partly drawn) | 0.068
CC1(C)[C@H](C(=O)O)N2C(=O)[C@@H](CO)[C@H]2S1(=O)=O | 1.16

test system: Serratia marcescens; test: In vitro inhibitory activity against Serratia marcescens; format: functional

MIC [µg/mL] | Compound
8 (≈ 30.4 µM) | CC1(C)[C@H](C(=O)O)N2C(=O)[C@@H](CO)[C@H]2S1(=O)=O
32 (≈ 61.8 µM) | CCN1CCN(C(=O)N[C@@H](C(=O)N[C@@H]2C(=O)N3[C@@H]2SC(C)(C)[C@@H]3C(=O)O)c2ccccc2)C(=O)C1=O [PIPERACILLIN]

Compound | MIC [µg/mL]
C[C@]1(Cn2ccnn2)[C@H](C(=O)[O-])N2C(=O)C[C@H]2S1(=O)=O.[Na+] [TAZOBACTAM SODIUM] | 32

test system: Mus musculus; test: In vivo inhibitory activity against Escherichia coli in mice; format: functional

Compound | ED50 [mg/kg]
CC1(C)[C@H](C(=O)O)N2C(=O)[C@@H](CO)[C@H]2S1(=O)=O | 8
CCN1CCN(C(=O)N[C@@H](C(=O)N[C@@H]2C(=O)N3[C@@H]2SC(C)(C)[C@@H]3C(=O)O)c2ccccc2)C(=O)C1=O [PIPERACILLIN] | 256
C[C@]1(Cn2ccnn2)[C@H](C(=O)[O-])N2C(=O)C[C@H]2S1(=O)=O.[Na+] [TAZOBACTAM SODIUM] | 7.7

test system: Mus musculus; test: In vivo inhibitory activity against Serratia marcescens in mice; format: functional

Compound | ED50 [mg/kg]
CC1(C)[C@H](C(=O)O)N2C(=O)[C@@H](CO)[C@H]2S1(=O)=O | 30
CCN1CCN(C(=O)N[C@@H](C(=O)N[C@@H]2C(=O)N3[C@@H]2SC(C)(C)[C@@H]3C(=O)O)c2ccccc2)C(=O)C1=O [PIPERACILLIN] | 128
C[C@]1(Cn2ccnn2)[C@H](C(=O)[O-])N2C(=O)C[C@H]2S1(=O)=O.[Na+] [TAZOBACTAM SODIUM] | 144

molecular target: Beta-lactamase TEM (Escherichia coli, UniProt P62593); test: Inhibitory activity against TEM-1 (class A) beta-lactamase
Sequence (P62593 whole entry): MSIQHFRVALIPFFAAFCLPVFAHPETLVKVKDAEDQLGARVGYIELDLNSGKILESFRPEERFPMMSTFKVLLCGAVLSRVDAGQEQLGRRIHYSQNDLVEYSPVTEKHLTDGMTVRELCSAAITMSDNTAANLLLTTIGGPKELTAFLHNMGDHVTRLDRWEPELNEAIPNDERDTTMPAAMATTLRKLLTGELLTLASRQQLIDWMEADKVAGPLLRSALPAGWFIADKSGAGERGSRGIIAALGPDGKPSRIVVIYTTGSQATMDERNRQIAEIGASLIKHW

Compound | IC50 [µM]
C[C@@H](O)[C@H]1C(=O)N2C(C(=O)O)=C(S[C@@H]3CCO[C@@H]3CN)[C@H](C)[C@H]12 | 0.035
C[C@H](O)[C@@H]1C(=O)N2[C@@H](C(=O)O)C(C)(C)S(=O)(=O)[C@H]12 | 204
CC1(C)S[C@@H]2[C@@H](CO)C(=O)N2[C@H]1C(=O)O | 59
C[C@H](O)[C@H]1C(=O)N2[C@@H](C(=O)O)C(C)(C)S(=O)(=O)[C@H]12 | > 334
C[C@@H](O)[C@H]1C(=O)N2[C@@H](C(=O)O)C(C)(C)S(=O)(=O)[C@H]12 | 47.9
CC1(C)S[C@@H]2[C@H](CO)C(=O)N2[C@H]1C(=O)O | 31
CC(C)[C@H](NC[C@H]1OCC[C@H]1SC1=C(C(=O)O)N2C(=O)[C@H]([C@@H](C)O)C2[C@H]1C)C(=O)O (stereo partly drawn) | 0.091

test system: Escherichia coli; test: In vitro inhibitory activity against Escherichia coli; format: functional

MIC [µg/mL] | Compound
4 (≈ 15.2 µM) | CC1(C)[C@H](C(=O)O)N2C(=O)[C@@H](CO)[C@H]2S1(=O)=O
> 64 | CCN1CCN(C(=O)N[C@@H](C(=O)N[C@@H]2C(=O)N3[C@@H]2SC(C)(C)[C@@H]3C(=O)O)c2ccccc2)C(=O)C1=O [PIPERACILLIN]

Compound | MIC [µg/mL]
C[C@]1(Cn2ccnn2)[C@H](C(=O)[O-])N2C(=O)C[C@H]2S1(=O)=O.[Na+] [TAZOBACTAM SODIUM] | 2
